Active and inactive are the calls of the source. The rule behind the calls is not given here.

Among the data in ChEMBL document CHEMBL4431373, “Investigation of Proposed Activity of Clarithromycin at GABAA Receptors Using [(11)C]Flumazenil PET” (ACS Med Chem Lett, 2016) are Activity, inhibition and Ki values, retold here.

For test [1], the system named is Rhesus monkey. In words: In vivo displacement of [11C]FMZ from rhesus monkey GABA-A receptor at 0.5 mg/kg, iv after 50 to 90 mins by PET analysis. Type of test: functional, organism-based. The conditions noted are these: Macaca mulatta. (In general: Loss of bound radioactivity is the signal in a displacement assay; it reports binding, not function.)
For test [2], the target named is T1, GABA-A receptor; anion channel (Homo sapiens) (UniProt P14867+P47870+P18507+P28472+P48169+Q99928+Q9UN88+P34903+O00591+O14764+Q8N1C3+P18505+P78334+P47869+P31644+Q16445). In words: Negative allosteric modulation of GABA-A receptor (unknown origin) at 3 uM by whole cell patch clamp assay.
Test [3] concerns the target T1, GABA-A receptor; anion channel (Homo sapiens). In words: Negative allosteric modulation of GABA-A receptor (unknown origin) at 300 uM by whole cell patch clamp assay.
The target of test [4] is GABA-A receptor; anion channel. Put plainly: Displacement of [3H]FMZ from GABA-A receptor in rat brain after 30 mins by autoradiography. The test is classed as tissue-based.
In test [5] the test system is Rhesus monkey. Put plainly: In vivo displacement of [11C]FMZ from rhesus monkey GABA-A receptor at 3.5 mg/kg, iv after 50 to 90 mins by PET analysis. The test is classed as functional, organism-based. The conditions noted are these: Macaca mulatta.
The test system of test [6] is Rhesus monkey. Put plainly: In vivo displacement of [11C]FMZ from rhesus monkey GABA-A receptor at 7 mg/kg, iv after 50 to 90 mins by PET analysis. Type of test: functional, organism-based. Particulars: Macaca mulatta.
Test [7] relates to Rhesus monkey. In words: In vivo displacement of [11C]FMZ from rhesus monkey GABA-A receptor assessed as late distribution volume ratio to early distribution volume ratio of […] at 3.5 mg/kg, iv by Logan plot analysis (reference value: 115 to 121 %). The test is classed as functional, Macaca mulatta.
The test system of test [8] is Rhesus monkey. In words: In vivo displacement of [11C]FMZ from rhesus monkey GABA-A receptor assessed late distribution volume ratio to early distribution volume ratio of […] at 7 mg/kg, iv by Logan plot analysis (reference value: 115 to 121 %). The test is classed as functional, Macaca mulatta.
Test [9] has as its target GABA-A receptor; anion channel (Rattus norvegicus) (UniProt O09028+P15431+P18506+P18508+P19969+P20236+P23574+P23576+P28471+P28473+P30191+P62813+P63079+P63138+Q91ZM7+Q9ES14). The conditions noted are these: Brain, 10 uM.
Description: Displacement of [3H]FMZ from GABA-A receptor in rat brain at 10 uM preincubated for 30 mins followed by FMZ addition measured up to 16 mins

Regarding `CCOC(=O)c1ncn2c1CN(C)C(=O)c1cc(F)ccc1-2`, the outcome in the test on Rhesus monkey [1] was Active.
The inhibition is how much of the control response was suppressed. A word on the Ki: it is the equilibrium dissociation constant of an inhibitor or competing ligand from its target. Regarding `CC[C@H]1OC(=O)[C@H](C)[C@@H](O[C@H]2C[C@@](C)(OC)[C@@H](O)[C@H](C)O2)[C@H](C)[C@@H](O[C@@H]2O[C@H](C)C[C@H](N(C)C)[C@H]2O)[C@](C)(OC)C[C@@H](C)C(=O)[C@H](C)[C@@H](O)[C@]1(C)O` [CLARITHROMYCIN], the inhibition in test [2] turned out to be 18%; in [3], 45%. For the same compound, the inhibition constant Ki in test [4] is over 10 µM. Besides, the inhibition result (in the test on Rhesus monkey [5]; in the test on Rhesus monkey [6]; in [9]) was “inactive” each time. Also, the Activity with Rhesus monkey [7] is given as 108 - 131%; in the test with Rhesus monkey [8], 89 - 186%.
